Data taken from US6528260B1, “Biallelic markers related to genes involved in drug metabolism” (Genset, S.A., priority 1999, dated 2003).

Tests used:
[1] = system: DME-related biallelic markers; assay: Genotyping by microsequencing: allele frequencies of DME-related biallelic markers in random Caucasian populations; design: species or system human; details: Caucasian FRENCH
Experimental: The biallelic markers identified as described above were further confirmed and their respective frequencies were determined through microsequencing. Microsequencing was carried out on individual DNA samples obtained as described herein.
Amplification of genomic DNA fragments from individual DNA samples was performed as described in Example 1 using the same set of PCR primers (See Table 17). Microsequencing was carried out on the amplified fragments using specific primers (See Table 16). The preferred primers used in microsequencing had about 19 nucleotides in length and hybridized just upstream of the considered polymorphic base.
The microsequencing reactions were performed as follows: 5 μl of PCR products were added to 5 μl purification mix (2U SAP (Shrimp alkaline phosphate) (Amersham E70092X)); 2U Exonuclease I (Amersham E70073Z); and 1 μl SAP buffer (200 mM Tris-HCl pH8, 100 mM MgCl2) in a microtiter plate. The reaction mixture was incubated 30 minutes at 37° C., and denatured 10 minutes at 94° C. afterwards. To each well was then added 20 μl of microsequencing reaction mixture containing: 10 pmol microsequencing oligonucleotide (19 mers, GENSET, crude synthesis, 5 OD), 1 U Thermosequenase (Amersham E79000G), 1.25 μl Thermosequenase buffer (260 mM Tris HCl pH 9.5, 65 mM MgCl2), and the two appropriate fluorescent ddNTPs complementary to the nucleotides at the polymorphic site corresponding to both polymorphic bases (11.25 nM TAMRA-ddTTP; 16.25 nM ROX-ddCTP; 1.675 nM REG-ddATP; 1.25 nM RHO-ddGTP; Perkin Elmer, Dye Terminator Set 401095). After 4 minutes at 94° C., 20 PCR cycles of 15 sec at 55° C., 5 sec at 72° C., and 10 sec at 94° C. were carried out in a Tetrad PTC-225 thermocycler (MJ Research). The microtiter plate was centrifuged 10 sec at 1500 rpm. The unincorporated dye terminators were removed by precipitation with 19 μl MgCl2 2 mM and 55 μl 100% ethanol. After 15 minute incubation at room temperature, the microtiter plate was centrifuged at 3300 rpm 15 minutes at 4° C. After discarding the supernatants, the microplate was evaporated to dryness under reduced pressure (Speed Vac). Samples were resuspended in 2.5 μl formamide EDTA loading buffer and heated for 2 min at 95° C. 0.8 μl microsequencing reaction were loaded on a 10% (19:1) polyacrylamide sequencing gel. The data were collected by an ABI PRISM 377 DNA sequencer and processed using the GENESCAN software (Perkin Elmer).
The frequencies for both alleles are shown for preferred MGST-II, ME1, UGT1A7 and UGT2B4 markers in Tables 19, 20, 21 and 22, respectively.

[2] = system: serum level of alanine aminotransferase (ALT); assay: Clinical study of zileuton: hepatotoxicity monitored by serum ALT level; format: in vivo, human; details: asthmatic individuals treated with zileuton
From the text: In a preferred embodiment, the trait considered was a side-effect upon drug treatment, the study involved two populations derived from a clinical study of the anti-asthmatic drug zileuton. The case population was composed of asthmatic individuals treated with zileuton showing zileuton-associated hepatotoxicity monitored by the serum level of alanine aminotransferase (ALT) and the control population was composed of asthmatic individuals treated with zileuton and having no increased serum level of ALT. Inclusion criteria and association between the biallelic markers of the present invention and zileuton-associated hepatotoxicity are further described below and in Example 4.
Zileuton (Zyflo™) is an active inhibitor of 5-lipoxygenase, the enzyme that catalyzes the formation of leukotrienes from arachidonic acid, indicated for prophylaxis and chronic treatment of asthma. […] In the present invention the ALT test (serum level of alanine aminotransferase) was used, which is considered the most sensitive indicator of liver injury.
Two groups of unrelated individuals were used in this association study in accordance with the invention: the case-control populations. The case population was composed of 89 asthmatic individuals treated with zileuton showing zileuton-associated hepatotoxicity monitored by the serum level of alanine aminotransferase (ALT) and the control population was composed of 208 asthmatic individuals treated with zileuton and having no increased serum ALT level.
The side effect examined in this study was the hepatotoxicity experienced by asthmatic individuals as a result of their treatment with Zileuton as part of a clinical study. […] Hepatotoxicity was monitored by measuring the serum levels of alanine aminotransferase (ALT), which is a sensitive indicator of liver cell damage.
As mentioned above, an association study is more informative if the populations considered present extreme phenotypes. […]

[3] = system: smooth muscle in peripheral airways; details: both in vitro and in vivo; cited from earlier work

Compound: 12-143-453 (DNA TGGAGTGGAGCTTGGTTCTGGCCRTGGGCTGGGGAAGGGAGGTCCGG; allele 24: 12-143-453 : polymorphic base A or G; listed as Homo Sapiens)
- allele frequency A [1]: 50.61
- allele frequency G [1]: 49.39

Compound: CC(c1cc2ccccc2s1)N(O)C(N)=O (stereo not shown) [Zileuton, zileuton]
- ALT+ population (at least 3 times the upper limit of normal level of ALT) as share of total asthmatic individuals in the study ([2]; 89 individuals): 4%
- ALT- population (less than 1xULN of ALT) as share of total asthmatic individuals in the study ([2]; 208 individuals): 35%
- asthmatic individuals that did not experience Zileuton-associated ALT increase ([2]; compared to ALT levels prior to zileuton intake): More than 90%

Compound: 12-142-321 (DNA GCAGCACAGCGGTCTGCGTGGAARTGAGGCACCGGGTGTGGGCGGGG; allele 24: 12-142-321 : polymorphic base A or G; listed as Homo Sapiens)
- allele frequency A [1]: 54.44
- allele frequency G [1]: 45.56

Compound: CCCCC/C=C\C\C=C/C=C/C=C/[C@@H](SC[C@H](NC(=O)CC[C@H](N)C(=O)O)C(=O)NCC(=O)O)[C@@H](O)CCCC(=O)O [LTC4, leukotriene C4]
- bronchoconstrictor potency relative to histamine [3]: 1000 times

Compound: CCCCC/C=C\C\C=C/C=C/C=C/[C@@H](SC[C@H](N)C(=O)NCC(=O)O)[C@@H](O)CCCC(=O)O [LTD4, Leukotriene D4]
- bronchoconstrictor potency relative to histamine [3]: 1000 times

Compound: 12-141-159 (DNA CTCAGTGAGTGAGTTGAAGGGCTYAGTCAACTATTTGTTGATACCAC; allele 24: 12-141-159 : polymorphic base T or C; listed as Homo Sapiens)
- allele frequency A [1]: 37.5
- allele frequency G [1]: 62.5

Compound: 12-124-194 (DNA TCTAGCTGGAGCCTGCGCTTGAGYAAAGAGCTGAACAACCAGATTGC; allele 24: 12-124-194 : polymorphic base C or T; listed as Homo Sapiens)
- allele frequency C [1]: 19.41
- allele frequency T [1]: 80.59
